We go through nine molecules from patent US20250215017A1, “TGF-ß INHIBITOR COMPOUND AND USE THEROF” (Medinno Pharmaceutical Technology (Zhuhai) Co., Ltd., priority 2022, published 2025).

Broadly, the pIC50 is −log10 of the IC50, conventionally taken in molar units.

This experiment concerns the target human TGFβR1 (Homo sapiens (Human), UniProt P36897). Kind of experiment: ADP-Glo kinase activity assay: TGFβR1 phosphorylates TGFβR1tide. Type of experiment: biochemical. The conditions noted are these: ATP 5 uM, TGFβR1 0.5 ng/ul, TGFβR1tide 0.1 ug/ul, 60 minutes at room temperature. On the procedure:
The principle of the activity assay was that TGFβR1 phosphorylates the substrate TGFβR1tide, consuming ATP in the process. This experiment employed the ADP-Glo method to detect kinase activity and determine the IC50 value, which was used to evaluate the inhibitory ability of the test compounds against human TGFβR1. In the experiment, DSM was used as a negative control, and LY364947 was used as a positive control. The specific experimental steps were as follows. Compounds were diluted 4-fold in DMSO in a dilution plate, with the final starting concentration of the compounds being 10 μM, across 10 concentration gradient points. The compounds were then further diluted 50-fold into the kinase reaction buffer and incubated on a shaker for 20 minutes. Kinase was formulated with an enzyme reaction buffer. 2 μl kinase was added to each well of the reaction plate. 1 μl of the compound diluted in buffer was added to each well, and then the plate was sealed with a sealing membrane and centrifuged at 1000 g for 30 seconds, leaving it at room temperature for 10 minutes. Solutions of TGFβR1tide and ATP were prepared with the kinase reaction buffer, and 2 μL of the TGFβR1tide/ATP solution was added to the reaction plate. The plate was sealed with a sealing film and centrifuged at 1000 g for 30 seconds. It was allowed to react at room temperature for 60 minutes. Subsequently, 4 μL of ADP-Glo was transferred to a 384-well reaction plate and centrifuged at 1000 rpm/min for 1 minute, followed by incubation at 25° C. for 40 minutes. Then, 8 μL of Detection solution was transferred to the 384-well reaction plate and centrifuged at 1000 rpm/min for 1 minute, after which it was incubated at 25° C. for 40 minutes. The RLU (Relative Luminescence Unit) signal was read using a BMG microplate reader, which was used to characterize the degree of kinase activity.
3.1 The inhibition rate was calculated as follows: inhibition rate of compound (% inh)=100%−(compound−positive control)/(negative control−positive control)*100%.
The IC50 (half inhibition concentration) of a compound was obtained using the following non-linear fitting equation, wherein data analysis was performed using Graphpad 7.0 software.
• 3.3.1 After an experimenter completed the report writing, another experimenter conducted a second inspection to ensure the accuracy of data analysis. • 3.3.2 Data were exported from BMG and analyzed manually. • 3.3.2.1 The ratios were converted to inhibition rates and IC50 was calculated by Prism GraphPad 7.0 from the inhibition rates. • 3.3.2.2 IC50 was calculated again by the ratios to verify accuracy of the results.
A general note: ADP-Glo turns the ADP formed in a reaction into a luminescent signal.

pIC50: −log10 of the molar value.

human TGFβR1, sequence (P36897 34-503): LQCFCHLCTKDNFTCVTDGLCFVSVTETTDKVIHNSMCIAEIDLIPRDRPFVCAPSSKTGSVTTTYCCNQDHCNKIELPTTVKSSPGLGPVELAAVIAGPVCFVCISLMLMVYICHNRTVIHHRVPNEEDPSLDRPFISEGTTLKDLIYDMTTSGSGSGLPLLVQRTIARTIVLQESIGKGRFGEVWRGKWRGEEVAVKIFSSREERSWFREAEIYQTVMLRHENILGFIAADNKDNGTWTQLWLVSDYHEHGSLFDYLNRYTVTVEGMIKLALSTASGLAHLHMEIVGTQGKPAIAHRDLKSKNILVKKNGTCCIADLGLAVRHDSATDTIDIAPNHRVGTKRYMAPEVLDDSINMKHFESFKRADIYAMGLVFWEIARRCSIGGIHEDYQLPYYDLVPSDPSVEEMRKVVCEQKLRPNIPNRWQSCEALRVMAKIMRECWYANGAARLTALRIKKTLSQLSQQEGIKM

As for `Cc1cccc(-c2nc3n(c2-c2ccc4[nH]ncc4c2)CC2CC32)n1` (stereo not drawn) [Compound 5, 3-(1H-Indazol-5-yl)-2-(6-methylpyridin-2-yl)-5,5a,6,6a-tetrahydrocyclopropane[3,4]pyrrolo[1,2-a]imidazole], the pIC50 was 7.82.

With `Cc1cccc(-c2nc3n(c2-c2ccnc(-c4nc5c([nH]4)CNC5)c2)CC2CC32)n1` (stereo not drawn) [Compound 8, 2-(6-Methylpyridin-2-yl)-3-(2-(1,4,5,6-tetrahydropyrrolo[3,4-d]imidazol-2-yl)pyridin-4-yl)-5,5a,6,6a-tetrahydrocyclopropane[3,4]pyrrolo[1,2-a]imidazole], the pIC50 was 7.66.

With `Cc1cccc(-c2nc3n(c2-c2ccc4ncn(C)c4c2)CC2CC32)n1` (stereo not drawn) [Compound 16, 3-(1-Methyl-1H-benzo[d]imidazol-6-yl)-2-(6-methylpyridin-2-yl)-5,5a,6,6a-tetrahydrocyclopropane[3,4]pyrrolo[1,2-a]imidazole], the pIC50 is 8.31.

`Cc1cccc(-c2nc3n(c2-c2ccc4ncnn4c2)CC2CC32)n1` (stereo not drawn) [Compound 18, 3-([1,2,4]Triazolyl[1,5-a]pyridin-6-yl)-2-(6-methylpyridin-2-yl)-5,5a,6,6a-tetrahydrocyclopropane[3,4]pyrrolo[1,2-a]imidazole] had a pIC50 of 8.25.

Take `Cc1cccc(-c2nc3n(c2-c2ccc4nccn4c2)CC2CC32)n1` (stereo not drawn) [Compound 19, 3-(Imidazolo[1,2-a]pyridin-6-yl)-2-(6-methylpyrridin-2-yl)-5,5a,6,6a-tetrahydrocyclopropane[3,4]pyrrolo[1,2-a]imidazole]: the pIC50 was 7.30.

Consider `Cc1cccc(-c2nc3n(c2-c2ccc4ncoc4c2)CC2CC32)n1` (stereo not drawn) [Compound 20, 6-(2-(6-Methylpyridin-2-yl)-5,5a,6,6a-tetrahydrocyclopropane[3,4]pyrrolo[1,2-a]imidazol-3-yl)benzo[d]oxazole], for which the pIC50 is 7.42.

On to `Cc1cccc(-c2nc3n(c2-c2ccc4ncsc4c2)CC2CC32)n1` (stereo not drawn) [Compound 21, 6-(2-(6-Methylpyridin-2-yl)-5,5a,6,6a-tetrahydrocyclopropane[3,4]pyrrolo[1,2-a]imidazol-3-yl)benzo[d]thiazole], for which the pIC50 is 8.22.

The molecule `Cc1cccc(-c2nc3n(c2-c2ccc4nc[nH]c4c2)CC2CC32)n1` (stereo not drawn) [Compound 35, 3-(1H-Benzo[d]imidazol-6-yl)-2-(6-methylpyridin-2-yl)-5,5a,6,6a-tetrahydrocyclopropyl[3,4]pyrrolo[1,2-a]imidazole] gave a pIC50 of 7.92.

Take `Cc1cccc(-c2nc3n(c2-c2ccn4nccc4c2)CC2CC32)n1` (stereo not drawn) [Compound 36, 2-(6-Methylpyridin-2-yl)-3-(pyrazolo[1,5-a]pyridin-5-yl)-5,5a,6,6a-tetrahydrocyclopropyl[3,4]pyrrolo[1,2-a]imidazole]: the pIC50 is 7.89.
